Columns and labels:
[1] = Solubility (Table S1); details: YES/NO
[2] = target: ATX (Homo sapiens, UniProt Q13822); test: Amplex Red Lyso-phospholipase D assay, human ATX; type: biochemical; set-up: purchased Sino Biological; details: recombinant human ATX 2 nM, LPC 16:0 substrate, Amplex Red; read-out: IC50 hATX
Experimental: All compounds proposed were assessed for their ATX inhibitory activity in vitro using the Amplex Red assay. The Amplex Red Lyso-phospholipase D assay is a fluorometry-based assay providing a sensitive method for measuring Lyso-phospholipase D (ATX) activity in vitro. In this enzyme-coupled assay, ATX activity is monitored indirectly using 10-acetyl-3,7-dihydrophenoxazine (Amplex Red reagent), a sensitive fluorogenic probe for H2O2. ATX initially cleaves the Lysophosphatidylcholine (LPC) substrate to yield choline and Lysophosphatidic acid (LPA), while choline gets subsequently oxidized by choline oxidase to betaine and H2O2. Lastly, H2O2, in the presence of horseradish peroxidase (HRP), reacts with Amplex Red reagent in a 1:1 stoichiometry to generate the highly fluorescent product resorufin.
The inhibition assay was performed as previously described with some modifications in order to accommodate the newly-discovered lag phase in ATX kinetics. To this end, and in order to provide adequate time to the hydrolysis of LPC by ATX, we added a 30min incubation period between ATX, inhibitors and LPC. Briefly, 2 μL of different concentrations of inhibitors diluted in DMSO (Sigma-Aldrich, St. Louis, MO, USA) were incubated with 50 µL of ATX 8 nM (human or mouse ATX from Sino Biological), and 48 µL reaction buffer (50 mM Tris-Cl pH 8.0 from Thermo Fisher Scientific, Waltham, MA, USA and 5 mM CaCl2 from Honeywell-Fluka, Charlotte, NC, USA) in a black 96-well microplate for 15 min at 37 °C. Thence, another 50 µL of reaction buffer with 200 μM LPC substrate 16:0 (Avanti Polar Lipids Inc, Alabaster, AL, USA) ([…]) was added to the reaction mixture and incubated for 30 min at 37 °C in order for ATX to convert LPC to LPA and choline. Finally, 50 µL of working solution containing 200 μM Amplex Red (Invitrogen, Carlsbad, CA, USA), 4 U/mL HRP (Sigma-Aldrich, St. Louis, MO, USA), 0.4 U/mL choline oxidase (Sigma-Aldrich, St. Louis, MO, USA) in 50 mM Tris-HCl pH 8.0 and 5 mM CaCl2 was added to measure the produced choline. The reaction was monitored at 37 °C in a fluorescence plate reader using excitation at 530 nm and reading at 590 nm, every 5 min for 30 min. The velocity of the reaction and the remaining activity of ATX were calculated at the linear phase of the reaction and dose-response inhibition graphs were plotted with GraphPad Software (GraphPad Software, San Diego, CA, USA). […] In order to evaluate a possible effect of the compounds on the second (choline oxidase) and third (HRP) enzymes of the Amplex Red assay, we also performed the assay in the absence of ATX but in the presence of the compounds. Instead of ATX, we added choline chloride at a final concentration of 2 µM so as the second and third steps of the assay could proceed normally.

Cc1ccc(S(=O)(=O)CCSc2n[nH]c(=O)n2-c2ccc(OCc3ccccc3)cc2)cc1 [HTS02873, 4-[4-(benzyloxy)phenyl]-5-({2-[(4-methylphenyl)sulfonyl]ethyl}sulfanyl)-2,4-dihydro-3H-1,2,4-triazol-3-one]
Solubility [1]: YES
IC50 [2]: > 100 µM

O=S(=O)(Nc1cc(C(F)(F)F)ccc1N1CCc2ccccc2C1)c1cccc2nonc12 [HTS01790, N-[2-(3,4-dihydro-1H-isoquinolin-2-yl)-5-(trifluoromethyl)phenyl]-2,1,,3-benzoxadiazole-7-sulfonamide]
Solubility [1]: YES
IC50 [2]: > 100 µM

Cc1cc(OC(=O)c2c(-c3ccccc3)noc2C)c2cc(F)ccc2n1 [BTB01297, (6-fluoro-2-methylquinolin-4-yl) 5-methyl-3-phenyl-1,2-oxazole-4-carboxylate]
Solubility [1]: YES
IC50 [2]: > 100 µM

O=c1[nH]nc(-c2ccc(F)cc2)cc1Cc1cn(Cc2ccccc2)c2ccc([N+](=O)[O-])cc12 [HTS01403, 4-[(1-benzyl-5-nitro-1H-indol-3-yl)methyl]-6-(4-fluorophenyl)pyridazin-3(2H)-one]
Solubility [1]: YES
IC50 [2]: > 100 µM

Cc1nn(-c2ccccc2)c2nc(OCC(=O)c3ccc(Br)cc3)c(C#N)c(-c3cccnc3)c12 [HTS09079, 6-[2-(4-bromophenyl)-2-oxoethoxy]-3-methyl-1-phenyl-4-pyridin-3-,ylpyrazolo[4,5-e]pyridine-5-carbonitrile]
Solubility [1]: YES
IC50 [2]: > 100 µM

Cc1c(S(=O)(=O)N2CCN(C3c4ccccc4-c4ccccc43)CC2)sc2ccc(Cl)cc12 [HTS08762, 1-[(5-chloro-3-methyl-1-benzothiophen-2-yl)sulfonyl]-4-(9H-fluoren-9-yl)piperazine]
Solubility [1]: YES
IC50 [2]: > 100 µM

O=C(C(=Cc1ccccc1)n1ccnc1)c1ccccc1OCc1ccccc1 [NRB02626, 1-[2-(benzyloxy)phenyl]-2-(1H-imidazol-1-yl)-3-phenylprop-2-en-1-0ne]
Solubility [1]: YES
IC50 [2]: > 100 µM

O=S(=O)(Nc1cc(-c2cccs2)nn1-c1ccc(F)cc1)c1ccc(-c2cc(C(F)(F)F)on2)s1 [SP00998]
Solubility [1]: YES
IC50 [2]: > 100 µM

O=C(CN1CCN(C2c3ccccc3-c3ccccc32)CC1)c1ccc2c(c1)OCO2 [HTS10658, 1-(1,3-benzodioxol-5-yl)-2-[4-(9H-fluoren-9-yl)piperazin-1-yl]ethanone]
Solubility [1]: YES
IC50 [2]: > 100 µM

NC(=NOC(=O)c1ccc(-c2cccs2)s1)c1cccc(C(F)(F)F)c1 [SEW02612, N'-{[5-(2-thienyl)-2-thienylcarbonyl]oxy}-3-(trifluoromethyl)benzenecarboximidamide]
Solubility [1]: YES
IC50 [2]: > 100 µM

Cc1ccc(C2=CC(c3cn(-c4ccccc4)nc3-c3ccccc3)N3C(=O)CSC3=N2)cc1 (stereo not drawn) [HTS09893, 5-(1,3-diphenylpyrazol-4-yl)-7-(4-methylphenyl)-5H-[1,3]thiazolo[3,2-a]pyrimidin-3-one]
Solubility [1]: YES
IC50 [2]: > 100 µM

COc1ccc(-n2c(-c3ccc(Cl)cc3)cc(-c3cccs3)c2-c2ccccc2)cc1 [RG00099, 5-(4-chlorophenyl)-1-(4-methoxyphenyl)-2-phenyl-3-(2-thienyl)-1H-pyrrole]
Solubility [1]: YES
IC50 [2]: > 100 µM

From publication PMC7582705, “Structure-Based Discovery of Novel Chemical Classes of Autotaxin Inhibitors” (International Journal of Molecular Sciences, 2020)
